Laboratory results taken from patent US11992620B2, “Methods of reducing the risk of mortality associated with a medical treatment” (Mallinckrodt Hospital Products IP Limited, priority 2013, dated 2024).
Like-named read-outs stand apart in the source and are kept apart here.

Tests used:
[1] = system: preterm neonates less than 30 weeks gestational age and less than 1250 grams; test: BPD-301 study: multi-center, double blind, placebo-controlled randomized clinical trial of inhaled nitric oxide for prevention of BPD; format: in vivo, human; design: Mortality by race, % / ALIVE No (mortality rate), %: concentration or dose not given beside the values; conditions: for Mortality by race, %: INO N = 229
Description: A multi-center, double blind, placebo-controlled randomized clinical trial designated the “BPD-301” study was conducted to examine the efficacy of inhaled nitric oxide in preventing BPD in preterm neonates less than 30 weeks gestational age and less than 1250 grams who required mechanical ventilation or positive pressure support. Patients were identified as (1) American Indian or Alaska Native, (2) Asian, (3) Black, (4) Hispanic, (5) White, or (6) Other. Continuous inhaled nitric oxide or placebo gas administration into the inspiratory limb of the ventilator circuit in the mechanically ventilated subject was accomplished using an INOvent® delivery device. The placebo group received the same dose of nitrogen that the active or treatment group received of inhaled nitric oxide. Administration of inhaled nitric oxide or placebo was begun at a point during the window of time 5 to 14 days after the subject's birth and continued for 24 days thereafter. The starting dose was 20 ppm. A dose reduction schedule was followed: after 72 hours of treatment at 20 ppm, reducing to 10 ppm, and then reducing to 5 ppm on day 10. If an infant was extubated before 24 days, therapy was continued via nasal continuous positive airway pressure or nasal cannula to complete the protocol. 451 infants less than 30 weeks of gestation age were included in this trial, of which 449 were randomized and 2 were not randomized. There was a 1:1 randomization with 220 infants treated with placebo and 229 treated with inhaled nitric oxide.
In order to enroll in the BPD 301 study and receive inhaled nitric oxide for the prevention of BPD, a pre-term neonate could not have already previously been administered inhaled nitric oxide.
Additionally, if the pre-term neonate had undiagnosed pulmonary hypertension and happened to be placed on placebo (nitrogen) for purposes of the BPD-301 study, the pre-term neonate's hypoxic respiratory failure would have worsened and would have likely required immediate treatment with commercial inhaled nitric oxide. This administration of commercial inhaled nitric oxide would have failed the subject from the trial, both reducing the power of the trial and eliminating the subject from the study analysis.
A synopsis of the BPD-301 protocol follows.
The placebo and treatment groups were matched for the following characteristics: gestational age, age at the start of treatment, sex, length at birth, weight, head circumference, respiratory severity scores, apgar scores, and physical exam results.

pre-term neonates [2] = conditions: 5 ppm for 7 days, cited from earlier work
pre-term neonates [3] = conditions: 10 ppm for 1 day, then 5 ppm for 6 days, cited from earlier work
pre-term neonates [4] = conditions: 5 ppm increased to 10 ppm if no response; mean 3 days therapy; cited from earlier work
pre-term neonates [5] = conditions: 5 ppm while intubated, cited from earlier work
pre-term neonates [6] = conditions: 5 ppm for 7-21 days, cited from earlier work
pre-term neonates [7] = conditions: cited from earlier work
[8] = system: experimental BPD in preterm lambs; conditions: prolonged therapy, cited from earlier work
[9] = FEMALE N = 64, inhaled nitric oxide-treated white infants less than 27 weeks gestational age
[10] = median treatment duration 14 days

Question: What does the source list for `[N]=O` [inhaled nitric oxide, nitric oxide]?
Answer: Mortality by race, % ([1]; ALL, p=0.436 vs placebo, Fisher's exact test): 11.35%; Mortality by race, % ([1]; American Indian or Alaska Native): 0.00%; Mortality by race, % ([1]; Asian): 0.00%; Mortality by race, % ([1]; Black): 2.62%; ALIVE No (mortality rate), % [1, 9]: 4.7%; ALIVE Yes, % [1, 9]: 95.3%; Mortality by race, % ([1]; Hispanic): 1.31%; ALIVE No (mortality rate), % ([1]; MALE N = 56, inhaled nitric oxide-treated white infants less than 27 weeks gestational age): 21.4%; ALIVE Yes, % ([1]; MALE N = 56, inhaled nitric oxide-treated white infants less than 27 weeks gestational age, p=0.011 male vs female): 78.6%; Mortality by race, % ([1]; Native Hawaiian or other Pacific Islander): 0.00%; Mortality by race, % ([1]; Other): 0.87%; Mortality by race, % ([1]; White): 6.55%; difference in mortality between treatment and placebo groups ([1]; any other racial category (than white)): no similar difference; mortality rate, inhaled nitric oxide vs placebo group ([1]; overall trial population, Fisher's exact test p=0.436): not significantly different; mortality rate vs placebo group ([1]; white population): higher mortality rate; ALIVE No (deaths), % ([1]; white preterm infants less than 27 weeks gestational age, INO N = 120): 12.5%; ALIVE Yes, % ([1]; white preterm infants less than 27 weeks gestational age, INO N = 120, p=0.010 vs placebo): 87.5%; risk of death as compared to placebo ([1]; white, male, preterm infants of less than 27 weeks gestational age treated for prevention of BPD): significant risk of death; death or BPD (pre-term neonates [2]): 77%; severe intraventricular haemorrhage (IVH) (pre-term neonates [2]): no increase; reduction in death or BPD (pre-term neonates [2]; vs placebo, p=0.14): 15.4%; CLD/death (pre-term neonates [3]): 48.6%; severe IVH/PVL (pre-term neonates [3]): 12.4%; reduction in "abnormal or delayed" development (pre-term neonates [3]; p=0.01): 47%; reduction in CLD/death (pre-term neonates [3]; vs placebo, p=0.03): 24%; reduction in severe IVH/PVL (pre-term neonates [3]; vs placebo, p=0.04): 47%; IVH vs placebo (pre-term neonates [4]): no difference; death or BPD vs placebo (pre-term neonates [4]): no difference; IVH/PVL (pre-term neonates [5]): 17.5%; CLD or death (pre-term neonates [5]; [10]): 71.6%; CLD or death vs placebo (pre-term neonates [5]; [10]): no difference; reduction in IVH/PVL (pre-term neonates [5]; vs placebo): 27%; survival without BPD at 36 weeks postmenstrual age (pre-term neonates [6]): 65%; survival without BPD at 36 weeks postmenstrual age vs placebo (pre-term neonates [6]; p=0.73): no difference; survival without CLD at 36 weeks postmenstrual age (pre-term neonates [7]; 20 ppm for 2 to 4 days, then stepped-down weekly, 24 days): 43.9%; improvement in survival without CLD at 36 weeks postmenstrual age (pre-term neonates [7]; 20 ppm for 2 to 4 days, then stepped-down weekly, 24 days, vs placebo, p=0.042): 20%; discharged or off all ventilator support (pre-term neonates [7]; 40 weeks, p=0.01): 65%; discharged or off all ventilator support (pre-term neonates [7]; 44 weeks, p=0.03): 82%; lung vascular growth ([8]; after VEGF inhibition): improves lung vascular growth; alveolarization ([8]; experimental BPD in preterm lambs): improves alveolarization
